The values below come from ChEMBL document CHEMBL3751795, “Discovery of pyridyl-based inhibitors of Plasmodium falciparum N-myristoyltransferase” (Medchemcomm, 2015).

The target in data set [1] is T1, Glycylpeptide N-tetradecanoyltransferase (Plasmodium falciparum (isolate 3D7), UniProt Q8ILW6).
T1 sequence (Q8ILW6 whole entry): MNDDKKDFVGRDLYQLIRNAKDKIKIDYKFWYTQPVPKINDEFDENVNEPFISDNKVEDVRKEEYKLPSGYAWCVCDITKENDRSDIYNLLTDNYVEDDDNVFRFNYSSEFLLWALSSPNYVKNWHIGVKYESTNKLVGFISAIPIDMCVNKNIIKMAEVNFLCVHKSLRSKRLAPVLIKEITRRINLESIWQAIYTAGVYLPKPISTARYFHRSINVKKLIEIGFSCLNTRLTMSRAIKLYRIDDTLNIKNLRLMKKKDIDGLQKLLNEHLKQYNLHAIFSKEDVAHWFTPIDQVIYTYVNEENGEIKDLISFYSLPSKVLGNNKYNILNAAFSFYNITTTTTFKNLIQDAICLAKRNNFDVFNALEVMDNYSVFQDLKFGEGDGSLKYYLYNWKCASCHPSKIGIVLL
As to conditions: read-out: Ki(app).

Data set [2] has as its target T2, Glycylpeptide N-tetradecanoyltransferase 1 (Homo sapiens, UniProt P30419).
T2 sequence (P30419 whole entry): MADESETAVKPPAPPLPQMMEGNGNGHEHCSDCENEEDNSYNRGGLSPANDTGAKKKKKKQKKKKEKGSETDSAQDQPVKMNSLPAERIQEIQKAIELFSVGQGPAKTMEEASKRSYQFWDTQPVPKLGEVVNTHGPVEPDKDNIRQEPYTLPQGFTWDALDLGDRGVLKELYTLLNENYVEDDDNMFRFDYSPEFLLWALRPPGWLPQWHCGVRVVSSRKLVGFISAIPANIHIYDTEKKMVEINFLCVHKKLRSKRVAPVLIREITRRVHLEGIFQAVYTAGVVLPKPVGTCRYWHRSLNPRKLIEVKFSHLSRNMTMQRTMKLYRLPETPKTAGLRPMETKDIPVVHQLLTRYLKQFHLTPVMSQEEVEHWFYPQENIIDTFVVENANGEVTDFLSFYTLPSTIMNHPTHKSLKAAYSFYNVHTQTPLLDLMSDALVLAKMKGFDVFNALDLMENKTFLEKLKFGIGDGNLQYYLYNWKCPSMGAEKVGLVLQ
Description: Inhibition of human NMT1 by 7-diethylamine-3-(4'maleimidylphenyl)-4-methylcoumarin based fluorescence assay

Data set [3] in a line: Cytotoxicity against human HepG2 cells after 48 hrs by MTS assay. It counts as cell-based. As to conditions: read-out: LD50.
A further data set concerns Plasmodium falciparum. Briefly: Antiparasitic activity against Plasmodium falciparum 3D7 trophozoites infected in RBC assessed as reduction in cell viability incubated for 96 hrs SyBr green assay. As to conditions: 3D7, 96 h.

A value given as a limit tells only on which side of the number the result lay.

For `COc1cccc(Cc2noc(-c3ccc(OC)cc3OC3CCNCC3)n2)c1`, in data set [1], the Ki was determined as 0.071 µM.

In the case of `COc1ccc(OC2CCNCC2)c(-c2nc(Cc3ccccc3)no2)c1`, the Ki in data set [2] stood at 2.3 µM; in data set [1] it was 4.6 µM.

With `Fc1ccc(-c2nc(Cc3ccccc3)no2)c(OC2CCNCC2)c1`, the values for the Ki in data set [2] and in data set [1] were 4.9 µM and 0.22 µM, respectively.

As for `c1ccc(Cc2noc(-c3ccccc3OC3CCNCC3)n2)cc1`, the Ki in data set [1] amounted to 1.4 µM.

For the molecule `Cc1nn(C)c(C)c1Cc1noc(-c2cccnc2OC2CCN(C(C)C)CC2)n1`, the Ki in data set [1] amounted to 0.09 µM. In addition, the CC50 at 48 h in data set [3] is greater than 100 µM.

The term EC50 denotes the concentration at which the effect is half-maximal. Consider `Cc1nn(C)c(C)c1Cc1noc(-c2cccnc2OC2CCN(C)CC2)n1`, for which the EC50 in the data set with Plasmodium falciparum is greater than 30 µM. Moreover, the Ki in data set [1] worked out at 0.57 µM.

For `Cc1nn(C)c(C)c1Cc1noc(-c2cccnc2OC2CCNCC2)n1`, in data set [1], the Ki was found to be 0.028 µM. In data set [3], the CC50 at 48 h was greater than 100 µM.

Take `c1cnc(OC2CCNCC2)c(-c2nc(Cc3cccc4ncccc34)no2)c1`: the half-maximal effective concentration (EC50) with Plasmodium falciparum is 0.21 µM. For the same molecule, the Ki was determined as 0.024 µM in data set [2] and 0.0017 µM in data set [1]. The CC50 at 48 h in data set [3] came to 65 µM.

As to `Cc1cccc(-c2nc(Cc3ccccc3)no2)c1OC1CCNCC1`, in data set [1], the Ki is 39 µM.

Take `COc1cccc(Cc2noc(-c3cccnc3OC3CCNCC3)n2)c1`: the Ki in data set [1] stood at 0.027 µM.

On to `COc1cccc(-c2nc(Cc3ccccc3)no2)c1OC1CCNCC1`, for which, in data set [1], the Ki is 17 µM.

As to `CCN1CCC(Oc2ncccc2-c2nc(Cc3c(C)nn(C)c3C)no2)CC1`, the EC50 in the data set with Plasmodium falciparum is greater than 10 µM. Also, in data set [1], the Ki stood at 0.34 µM.

As to `Cc1ccc(-c2nc(Cc3ccccc3)no2)c(OC2CCNCC2)c1`, the Ki in data set [1] worked out at 0.62 µM.

Turning to `Fc1cccc(OC2CCNCC2)c1-c1nc(Cc2ccccc2)no1`, in data set [1], the Ki is 4.8 µM.

Turning to `COc1cccc(Cc2noc(-c3ccc(F)cc3OC3CCNCC3)n2)c1`, the Ki in data set [1] worked out at 0.071 µM.

For `COc1cccc(Cc2noc(-c3ccccc3OC3CCNCC3)n2)c1`, the Ki in data set [2] is 1.4 µM; in data set [1], 0.19 µM.

For the molecule `COc1ccc(-c2nc(Cc3ccccc3)no2)c(OC2CCNCC2)c1`, the figures for the Ki in data set [2] and in data set [1] were 1.2 µM and 0.18 µM, respectively.

As for `Fc1ccc(OC2CCNCC2)c(-c2nc(Cc3ccccc3)no2)c1`, the Ki in data set [2] worked out at 1 µM; in data set [1], 0.24 µM.

Regarding `c1ccc(Cc2noc(-c3cccnc3OC3CCNCC3)n2)cc1`, the Ki in data set [2] was 1.7 µM; in data set [1], 0.14 µM.

Regarding `Cc1ccc(OC2CCNCC2)c(-c2nc(Cc3ccccc3)no2)c1`, the Ki in data set [1] amounted to 29 µM.

With `Fc1cccc(-c2nc(Cc3ccccc3)no2)c1OC1CCNCC1`, in data set [1], the Ki was 1.5 µM.

In the case of `Clc1ccc(OC2CCNCC2)c(-c2nc(Cc3ccccc3)no2)c1`, in data set [1], the Ki was determined as 0.52 µM.

As for `COc1cccc(Cc2noc(-c3ccc(Cl)cc3OC3CCNCC3)n2)c1`, the Ki in data set [1] was 0.03 µM.

Take `c1ccc(Cc2noc(-c3ncccc3OC3CCNCC3)n2)cc1`: the Ki in data set [1] came to 29 µM.

On to `Clc1ccc(-c2nc(Cc3ccccc3)no2)c(OC2CCNCC2)c1`, for which the Ki in data set [1] stood at 0.29 µM.
